Values quoted from earlier work, collected in patent US20220023398A1, “COMPOSITIONS AND METHODS FOR TREATING THYROID DISEASE” (Script Essentials, LLC, priority 2015, published 2022).

Key:
[1] = after oral supplementation
[2] = supplementation, even in selenium sufficient patients
[3] = participants with low T3, normal T4

O=S(=O)([O-])[O-].[Zn+2] [zinc sulfate]
TSH [1, 3]: normalized
reverse T3 (rT3) [1, 3]: decreased
levels of T3 ([1]; participants with low T3, normal T4, mild to moderate zinc deficiency): normalized

[Se] [selenium]
thyroid peroxidase (TPO) antibody levels in the blood [2]: reduced
